pIC50: −log10 of the molar value. “Also recorded” adds a separate entry of the source. Where two headings read alike, the source gives them in different places.
What was measured:
N-mSMase ε = test: N-mSMase activity assay: influence of cations, reducing agents and surfactants on enzyme activity; format: biochemical, bovine; details: for influence of reducing agents on N-mSMase ε activity: 0.5-10 mM, relative to control without reducing agent; for influence of agents similar to glutathione on N-mSMase ε activity: 1, 3, 5 or 10 mM; for inhibition of activity at 10 mM: glutathione concentration of 10 mM
Method: (§1) After being dried with a nitrogen stream, [N-methyl-^14 C]sphingomyelin (choline residue labeled with ^14C) was suspended in ethanol. 10 µl of a sample was mixed with 100 µl of a reaction solution (10 mM MgSO4, 50 µM [N-methyl-^14 C]sphingomyelin (c.a. 60,000 cpm), 2 mM sodium deoxycholate, 100 mM Tris-HCl (pH 7.0)) and incubated at 37 °C for 30 min. Addition of 320 µl of a mixture of chloroform/methanol (1:1 volume ratio) and 30 µl of 2N hydrochloride stopped the reaction. After vortexing and centrifuging the resulting mixture at 10,000xg, 200 µl of the aqueous layer was mixed with 2.5 ml of a scintillation cocktail, such as that manufactured by Packard Instrument Co., U.S.A., identified as "Insta gel-XF", followed by measuring the radioactivity with the aid of a Packard Tricarb liquid β-scintillation counter.
(§2) Separately, the same Lineweaver-Burk analysis was carried out, but in the presence of 0.4, 1.0 and 2.0 mM sodium deoxycholate.
In order to examine the dependency of N-mSMase ε activity on Mg^2+, Fraction B obtained in Step 6 of Example 1 was desalted by being applied to a PD-10 column (Sephadex G-25, Pharmacia Biotechnology Co., Sweden). For use, the column was equilibrated twice with distilled water, in advance. The desalted protein fraction (corresponding to protein 10 ng) was measured for N-mSMase ε activity in the presence of 1, 5, 10 and 25 mM of MgCl2 in the manner described in Experimental Example 1.
An examination was made of the influence of other cations, such as Ca^2+, Fe^3+, Fe^2+, Zn^2+, Cu^2+ and […] on the activity of N-mSMase ε. To a solution containing the desalted protein fraction (corresponding to protein 10 ng) obtained in C and 5 mM MgCl2, CaCl2, FeCl3, FeCl2, ZnCl2 or CuCl2 was added to yield a final concentration of 0.01, 0.02, 0.05, 0.1, 0.25 or 0.5 mM, followed by the measurement of N-mSMase ε activity in accordance with the procedure of Experimental Example 1.
After the addition of 10 µl of [N-methyl-^14C]sphingomyelin, the N-mSMase activity was measured according to the procedure of Experimental Example 1. For comparison, a Tris-HCl buffer containing no reducing agents was used as a control. The N-mSMase ε activity influenced by the reducing agents was expressed as a percentage relative to the control.
After being treated with 1, 3, 5 or 10 mM of GSSG, cystein, cystein-glycine or γ-glutaric acid-cystein, the activity of N-mSMase ε was measured in the same manner.
Sodium deoxycholate and Triton X-100 were selected as surfactants to be tested. The protein fraction obtained in C (corresponding to 10 ng of protein) was measured for N-mSMase ε activity in reaction solutions containing 0.5, 1, 2 and 5 mM of sodium deoxycholate, respectively, in accordance with the procedure of Experimental Example 1. In the case of Triton X-100, it was prepared at concentrations of 0.05, 0.01, 0.5 and 0.1 %.

[1] = system: partially purified N-mSMase; details: partially purified rat brain N-mSMase (Liu et al.); cited from earlier work
[2] = system: N-mSMase ε, membrane-associated, Mg^2+-dependent, neutral pH optimum sphingomyelinase (60 kDa) from bovine brain; test: Lineweaver-Burk kinetic analysis (N-mSMase activity assay); format: biochemical
Method: as §1
The N-mSMase ε prepared in Step 6 of Example 1 was subjected to Lineweaver-Burk analysis. In this regard, enzyme N-mSMase ε was used at amounts of 10 ng or less with the substrate sphingomyelin varying, in concentration, from 6.25 to 100 µM.
as §2

[3] = cation chloride added at 0.01-0.5 mM in the presence of 5 mM MgCl2, read-out: IC50 (inhibition of enzyme activity, hydrolysis of sphingomyelin)

Question: Which results are given for O[C@H](CS)[C@H](O)CS (racemic) [DTT, dithiothreitol]?
Answer: influence of reducing agents on N-mSMase ε activity (N-mSMase ε): not inhibited; influence of reducing agents on N-mSMase ε activity (N-mSMase ε; listed as dithiothreitol): neither dithiothreitol nor 2-mercaptoethanol has any influence; effect on activity of partially purified N-mSMase [1]: promoted

Question: With OCCS [2-mercaptoethanol] as the molecule, how does the “influence of reducing agents on N-mSMase ε activity” value (N-mSMase ε) read?
Answer: not inhibited; also recorded: neither dithiothreitol nor 2-mercaptoethanol has any influence

Question: For [Ca+2].[Cl-].[Cl-] [Ca^2+, CaCl2], which “influence on the activity of N-mSMase ε” value (N-mSMase ε; concentration of 0.5 mM or less, 5 mM MgCl2) is on record?
Answer: no influence

Question: With [Cl][Cu][Cl] [Cu^2+, CuCl2] as the molecule, how does the pIC50 (N-mSMase ε; [3]) read?
Answer: 4.55

Question: For [Cl-].[Cl-].[Mg+2] [Mg^2+, MgCl2], which “dependency of N-mSMase ε activity on Mg^2+” value (N-mSMase ε; 1, 5, 10 and 25 mM MgCl2, desalted fraction) is on record?
Answer: Mg^2+-concentration dependent

Question: With [Cl-].[Cl-].[Zn+2] [Zn^2+, ZnCl2] as the molecule, how does the pIC50 (N-mSMase ε; [3]) read?
Answer: 4.49

Question: Which “influence of agents similar to glutathione on N-mSMase ε activity” value (shortened to “influence of agents similar”) (N-mSMase ε) does the source give for N[C@@H](CS)C(=O)O [cystein] here?
Answer: inhibited; also recorded: reduction in the activity

Question: Which results are given for N[C@@H](CCC(=O)N[C@@H](CS)C(=O)NCC(=O)O)C(=O)O [glutathione]?
Answer: pIC50 (N-mSMase ε; glutathione 0.5-10 mM, preincubation 37 °C 10 min, read-out: IC50 (inhibition of sphingomyelinase activity)): 2.10; inhibition of activity at 10 mM (N-mSMase ε): completely inhibited; inhibition of activity at 10 mM (N-mSMase ε; listed as Glutathione): fully inhibited; change of activity with concentration up to 3 mM (N-mSMase ε; glutathione up to 3 mM): increases

Question: For N[C@@H](CCC(=O)N[C@@H](CS)C(=O)O)C(=O)O [γ-glutaric acid-cystein], which “influence of agents similar” value (N-mSMase ε) is on record?
Answer: inhibited; also recorded: reduction in the activity

Question: Which “influence of agents similar” value (N-mSMase ε) does the source give for oxidized glutathione [GSSG] here?
Answer: inhibited; also recorded: reduction in the activity

Question: Which “effect on activity of partially purified N-mSMase” value [1] does the source give for phosphatidylserine here?
Answer: promoted

Question: Which “effect on Km value of N-mSMase ε” value (N-mSMase ε; Lineweaver-Burk analysis in the presence of 0.4, 1.0 and 2.0 mM sodium deoxycholate) does the source give for sodium deoxycholate here?
Answer: could not change

Question: For sphingomyelin, which Km ([2]; substrate sphingomyelin 6.25 to 100 µM, enzyme 10 ng or less, absence of surfactants) is on record?
Answer: 47 µM

Question: What about the “Km value in the presence of sodium deoxycholate” value ([2]; substrate sphingomyelin, 0.4, 1.0 and 2.0 mM sodium deoxycholate) of the same molecule?
Answer: could not change

From EP1258527A1, “Membrane-associated shingomyelinase derived from bovine brain, isolation method therfor and anti-sphingomyelinase monocional antibody” (SK Corporation, priority 2001, dated 2002)
